From ChEMBL document CHEMBL1137403, “Discovery of 2-[4-{{2-(2S,5R)-2-cyano-5-ethynyl-1-pyrrolidinyl]-2-oxoethyl]amino]- 4-methyl-1-piperidinyl]-4-pyridinecarboxylic acid (ABT-279): a very potent, selective, effective, and well-tolerated inhibitor of dipeptidyl peptidase-IV, useful for the treatment of diabetes” (J Med Chem, 2006)

How the values were obtained:
[1] = target: Dipeptidyl peptidase 8 (Homo sapiens, UniProt Q6V1X1)
[2] = target: Dipeptidyl peptidase 9 (Homo sapiens, UniProt Q86TI2)
Dipeptidyl peptidase 9, sequence (Q86TI2 whole entry): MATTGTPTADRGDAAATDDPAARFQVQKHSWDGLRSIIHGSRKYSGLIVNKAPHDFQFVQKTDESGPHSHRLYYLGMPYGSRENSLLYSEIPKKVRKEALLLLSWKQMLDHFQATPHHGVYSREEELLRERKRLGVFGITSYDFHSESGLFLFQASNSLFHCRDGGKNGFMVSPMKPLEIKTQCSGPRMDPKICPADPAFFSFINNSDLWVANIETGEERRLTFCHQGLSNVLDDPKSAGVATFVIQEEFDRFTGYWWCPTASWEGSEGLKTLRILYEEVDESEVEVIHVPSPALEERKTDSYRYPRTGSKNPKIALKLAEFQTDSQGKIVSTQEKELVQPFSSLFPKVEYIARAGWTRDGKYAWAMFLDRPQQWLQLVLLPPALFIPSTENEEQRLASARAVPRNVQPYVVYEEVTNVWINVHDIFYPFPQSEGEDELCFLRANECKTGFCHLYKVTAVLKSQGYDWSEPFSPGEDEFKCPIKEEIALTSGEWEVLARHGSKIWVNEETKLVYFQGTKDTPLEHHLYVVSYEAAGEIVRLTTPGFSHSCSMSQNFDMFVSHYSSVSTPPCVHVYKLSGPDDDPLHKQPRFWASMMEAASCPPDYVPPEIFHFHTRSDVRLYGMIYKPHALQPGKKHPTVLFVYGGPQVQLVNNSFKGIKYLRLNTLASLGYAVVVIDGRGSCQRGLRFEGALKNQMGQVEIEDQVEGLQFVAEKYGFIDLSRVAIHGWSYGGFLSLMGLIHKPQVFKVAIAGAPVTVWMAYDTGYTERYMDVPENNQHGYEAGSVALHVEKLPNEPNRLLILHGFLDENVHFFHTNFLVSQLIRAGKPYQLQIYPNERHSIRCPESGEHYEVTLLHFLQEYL

Dipeptidyl peptidase 8, sequence (Q6V1X1 whole entry): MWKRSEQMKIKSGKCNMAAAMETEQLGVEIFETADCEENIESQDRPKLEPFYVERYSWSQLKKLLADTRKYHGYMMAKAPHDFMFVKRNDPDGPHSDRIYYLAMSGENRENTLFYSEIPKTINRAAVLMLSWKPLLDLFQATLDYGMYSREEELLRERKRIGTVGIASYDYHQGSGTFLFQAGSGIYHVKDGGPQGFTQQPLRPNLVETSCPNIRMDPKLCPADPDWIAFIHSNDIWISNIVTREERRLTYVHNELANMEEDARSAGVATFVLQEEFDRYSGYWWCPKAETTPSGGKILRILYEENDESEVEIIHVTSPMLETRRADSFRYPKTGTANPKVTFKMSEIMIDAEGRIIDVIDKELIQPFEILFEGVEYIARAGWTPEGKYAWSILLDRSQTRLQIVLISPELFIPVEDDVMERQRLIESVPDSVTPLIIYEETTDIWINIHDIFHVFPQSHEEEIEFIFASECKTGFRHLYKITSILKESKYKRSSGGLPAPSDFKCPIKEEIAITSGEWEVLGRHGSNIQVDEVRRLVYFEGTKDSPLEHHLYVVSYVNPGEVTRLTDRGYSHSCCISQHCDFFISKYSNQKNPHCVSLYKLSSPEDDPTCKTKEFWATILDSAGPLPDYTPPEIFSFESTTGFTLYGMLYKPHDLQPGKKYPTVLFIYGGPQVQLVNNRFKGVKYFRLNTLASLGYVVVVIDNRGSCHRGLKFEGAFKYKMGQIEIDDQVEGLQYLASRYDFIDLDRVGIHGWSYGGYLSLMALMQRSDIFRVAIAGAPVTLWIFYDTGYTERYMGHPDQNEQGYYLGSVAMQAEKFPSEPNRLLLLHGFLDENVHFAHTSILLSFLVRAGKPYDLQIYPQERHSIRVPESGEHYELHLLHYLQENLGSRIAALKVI

Row | Ki [1] [µM] | Ki [2] [µM] | SMILES
1 | > 30 |  | C#C[C@H]1CC[C@@H](C#N)N1C(=O)CN[C@H]1CC[C@H](Oc2ccc(C#N)cn2)CC1 (mixture of isomers)
2 | > 30 | > 30 | C#C[C@H]1CC[C@@H](C#N)N1C(=O)CNC12CC3CC(CC(O)(C3)C1)C2
